Results published in EP1156787B1, “OXADIAZOLE COMPOUNDS AND COMPOSITIONS FOR DELIVERING ACTIVE AGENTS” (priority 1999, dated 2000).

What was measured:
[1] = Intracolonic delivery of heparin with delivery agent compound; heparin activity by activated partial thromboplastin time (APTT); format: in vivo, Male Sprague-Dawley rats; conditions: rats, intracolonic (IC); compound 50 mg/kg, heparin 25 mg/kg, volume 1 ml/kg; maximum of time-point means of five rats; baseline about 20 sec
Protocol: Oral gavage (PO) and/or intracolonic (IC) dosing solutions containing a delivery agent compound and heparin sodium USP in 25% aqueous propylene glycol were prepared. Either the sodium salt of the compound was used or the free acid was converted to the sodium salt with one equivalent of sodium hydroxide. Typically, delivery agent compound and heparin (about 166-182 IU/mg) were mixed by vortex as dry powders. This dry mixture was dissolved in 25% v/v aqueous propylene glycol, vortexed and placed in a sonicator (about 37 °C). The pH was adjusted to about 7 (6.5 to 8.5) with aqueous sodium hydroxide (2N). The dosing solution was sonicated to produce a clear solution. The final volume was adjusted to about 3.0 ml. The final delivery agent compound dose, heparin dose and volume dose amounts are listed below in Table 2.
The typical dosing and sampling protocols were as follows. […]
Citrated blood samples were collected by cardiac puncture following the administration of ketamine (88 mg/kg), typically at 0.25, 0.5, 1.0 and 1.5 hours after administration. Heparin activity was determined by utilizing the activated partial thromboplastin time (APTT) according to the method of Henry, J.B., Clinical Diagnosis and Management by Laboratory Methods, Philadelphia, PA, W.B. Saunders (1979). […]

[2] = set-up: species or system Male Sprague-Dawley rats; conditions: rat, in vivo, po, 100 mg/kg
Protocol: Oral gavage (PO) and/or intracolonic (IC) dosing solutions of delivery agent compound and human parathyroid hormone residues 1-34 (PTH) in water were prepared. A solution of the compound was made either with the sodium salt of the compound or by converting the free acid to its sodium salt. Typically, a solution of the compound was prepared in water and stirred, adding one equivalent of sodium hydroxide (1.0 N) when making the sodium salt. The final dosing solutions were prepared by mixing the compound solution with a PTH stock solution (typically having a concentration of 5 mg PTH/ml) and diluting to the desired volume (usually 3.0 ml). The final compound, PTH and volume dose amounts are listed below in Table 4.
The typical dosing and sampling protocols were as follows. Male Sprague-Dawley rats weighing between 200-250g were fasted for 24 hours and administered ketamine (44 mg/kg) and chlorpromazine (1.5 mg/kg) 15 minutes prior to dosing. A dosing group of five rats was administered one of the dosing solutions. For oral gavage (PO), an 11cm Rusch 8 French catheter was adapted to a 1 ml syringe with a pipette tip. The syringe was filled with dosing solution by drawing the solution through the catheter, which was then wiped dry. The catheter was placed down the esophagus leaving 1 cm of tubing past the rat's incisors. Solution was administered by pressing the syringe plunger. For intracolonic (IC) dosing, a 7.5 cm Rusch catheter tube (French 8 or 6) was adapted to a syringe with an Eppendorf pipette tip. The syringe was filled with the dosing solution by drawing the solution through the catheter tube. The catheter tube was wiped dry. K-Y jelly was applied to the tip, avoiding contact with the eye of the tube, and the tube was inserted into the colon through the anus until the tube was no longer visible. The solution was injected by pressing the syringe plunger, and the tube was removed.
Blood samples were collected serially from the tail artery, typically 0, 15, 30, 45, 60 and 90 minutes after oral administration and 0, 10, 20, 30, 60 and 90 minutes after IC administration. Serum PTH concentrations were quantified by a PTH radioimmunoassay kit (Kit # RIK 6101 from Peninsula Laboratories, Inc., San Carlos, CA). Previous studies indicated baseline values of about zero. Results from the five rats in each group were averaged for each time point. The maximum is reported below in Table 4.

[3] = set-up: species or system Male Sprague-Dawley rats; conditions: rat, in vivo, po, 150 mg/kg
Protocol: Oral dosing (PO) compositions of delivery agent compound and salmon calcitonin (sCT) in water were prepared. Typically, 450 mg of compound was added to 2.0 ml of water. Either the sodium salt of the compound was used or the free acid was converted to the sodium salt by stirring the resultant solution and adding one equivalent of sodium hydroxide (1.0 N) and diluting with water. The solution was vortexed, then heated (about 37°C) and sonicated. The pH was adjusted to about 7 (6.5 to 8.5) with sodium hydroxide or hydrochloric acid. 90 µg sCT from a stock solution was added to the solution. Water was then added to bring the total volume to about 3.0 ml (varies depending on solubility of the delivery agent compound) and vortexed. The final delivery agent compound dose, sCT dose and volume dose amounts are listed below in Table 1.
The typical dosing and sampling protocols were as follows. Male Sprague-Dawley rats weighing between 200-250g were fasted for 24 hours and administered ketamine (44 mg/kg) and chlorpromazine (1.5 mg/kg) 15 minutes prior to dosing. A dosing group of five rats was administered one of the dosing solutions. For oral dosing, an 11 cm Rusch 8 French catheter was adapted to a 1 ml syringe with a pipette tip. The syringe was filled with dosing solution by drawing the solution through the catheter, which was then wiped dry. The catheter was placed down the esophagus leaving 1 cm of tubing past the incisors. Solution was administered by pressing the syringe plunger.
Blood samples were collected serially from the tail artery, typically at 0, 10, 20, 30, 60 and 90 minutes after administration. Serum sCT was determined by testing with an EIA kit (Kit # EIAS-6003 from Peninsula Laboratories, Inc., San Carlos, CA). Numbers were adjusted according to baseline values obtained at 0 minutes. The limit of the assay is 80 pg/ml. The results from the five rats in each dosing group were averaged for each time point. The maximum is reported below in Table 1.

Compound | Mean Peak APTT (sec) ± SD [1] [s] | Mean Peak Serum [PTH] (pg/ml) ± SD [2] [pg/mL] | AUC [2] | Mean Peak Serum Set (pg/ml ± SD)(SE) [3]
O=C(O)CCCCCCc1nnc(-c2ccccc2O)o1 [Compound 2] | 52.8 ± 31.9 | 498.55 ± 237.83 |  | 
O=C(O)CCCCc1nnc(-c2ccccc2O)o1 [Compound 3] |  | 57.88 | 2717.51 | 
O=C(O)CCCCCCCc1nnc(-c2ccccc2O)o1 [Compound 4] |  | 330.74 ± 410.57 | 6852.12 | 
O=C(O)CCCCCCc1nnc(-c2cc(Cl)ccc2O)o1 [Compound 5] |  | 22.91 | 509.20 | 393 ± 431 (193) pg/ml
O=C(O)CCCCCCc1nnc(-c2cc(Cl)cc(Cl)c2O)o1 [Compound 6] |  | 14.44 | 716.96 | 306 ± 339 (152) pg/ml
Cc1ccc(-c2nnc(CCCCCCC(=O)O)o2)c(O)c1 [Compound 7] |  | 138.9 ± 118.46 | 4790.10 | 
O=C(O)CCCCCCc1nnc(-c2ccccc2)o1 [Compound 10] |  |  |  | 37 ± 55 pg/mL
